Test results as given in ChEMBL document CHEMBL5252673, “Development of thiazole-appended novel hydrazones as a new class of α-amylase inhibitors with anticancer assets: an in silico and in vitro approach” (RSC Med Chem, 2023).
One block for each molecule: values may come before it. The source made the active and inactive calls. The calls are words filed in the database; no cut-off is given here.

How the values were obtained:
Pancreatic alpha-amylase = biological target: T1, Pancreatic alpha-amylase (Sus scrofa, UniProt P00690); assay: Inhibition of porcine pancreatic alpha-amylase using starch as substrate incubated for 10 mins by absorbance based assay
T1 sequence (P00690 whole entry): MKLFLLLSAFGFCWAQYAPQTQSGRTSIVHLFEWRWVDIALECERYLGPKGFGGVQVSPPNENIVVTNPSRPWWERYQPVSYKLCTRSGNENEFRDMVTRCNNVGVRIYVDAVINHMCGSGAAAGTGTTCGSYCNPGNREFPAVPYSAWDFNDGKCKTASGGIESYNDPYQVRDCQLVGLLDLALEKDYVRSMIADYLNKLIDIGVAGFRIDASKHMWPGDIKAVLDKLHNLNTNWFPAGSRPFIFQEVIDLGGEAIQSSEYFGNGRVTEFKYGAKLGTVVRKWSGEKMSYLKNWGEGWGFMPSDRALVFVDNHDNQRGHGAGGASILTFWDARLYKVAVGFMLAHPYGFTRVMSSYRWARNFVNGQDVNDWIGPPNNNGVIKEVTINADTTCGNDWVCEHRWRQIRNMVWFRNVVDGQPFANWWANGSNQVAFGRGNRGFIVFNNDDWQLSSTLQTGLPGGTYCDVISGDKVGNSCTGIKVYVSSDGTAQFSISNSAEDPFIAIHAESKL

[1] = biological target: Alpha amylase (Homo sapiens) (UniProt P0DUB6); assay: Binding affinity to alpha-amylase (unknown origin) assessed as quenching constant at a temperature of 288.15 K by fluorescence quenching analysis
[2] = biological target: Alpha amylase (Homo sapiens) (UniProt P0DUB6); assay: Binding affinity to alpha-amylase (unknown origin) assessed as quenching constant at a temperature of 310.15 K by fluorescence quenching analysis
MCF-10A = assay: Cytotoxicity against human MCF-10A assessed as reduction in cell viability upto 10 uM incubated for 48 hrs by MTT assay; assay type: toxicity, cell-based
[3] = biological target: Alpha amylase (Homo sapiens) (UniProt P0DUB6); assay: Binding affinity to alpha-amylase (unknown origin) assessed as increase in intensity of absorption peak at 280 nm by […]
[4] = biological target: Alpha amylase (Homo sapiens) (UniProt P0DUB6); assay: Binding affinity to alpha-amylase (unknown origin) assessed as decrease in fluorescence intensity of tyrosine residue by Synchronous fluorescence analysis
[5] = biological target: Alpha amylase (Homo sapiens) (UniProt P0DUB6); assay: Binding affinity to alpha-amylase (unknown origin) assessed as Stem-Volmer quenching constant at a temperature of 283.15 K by fluorescence quenching analysis
[6] = biological target: Alpha amylase (Homo sapiens) (UniProt P0DUB6); assay: Binding affinity to alpha-amylase (unknown origin) assessed as quenching constant at a temperature of 283.15 K by fluorescence quenching analysis
Alpha amylase = biological target: T2, Alpha amylase (Homo sapiens, UniProt P0DUB6); assay: Inhibition of alpha-amylase (unknown origin) using starch as substrate preincubated with substrate for 15 mins followed by compound addition and measured after 15 mins by UV-VIS spectrophotometric analysis
T2 sequence (P0DUB6 whole entry): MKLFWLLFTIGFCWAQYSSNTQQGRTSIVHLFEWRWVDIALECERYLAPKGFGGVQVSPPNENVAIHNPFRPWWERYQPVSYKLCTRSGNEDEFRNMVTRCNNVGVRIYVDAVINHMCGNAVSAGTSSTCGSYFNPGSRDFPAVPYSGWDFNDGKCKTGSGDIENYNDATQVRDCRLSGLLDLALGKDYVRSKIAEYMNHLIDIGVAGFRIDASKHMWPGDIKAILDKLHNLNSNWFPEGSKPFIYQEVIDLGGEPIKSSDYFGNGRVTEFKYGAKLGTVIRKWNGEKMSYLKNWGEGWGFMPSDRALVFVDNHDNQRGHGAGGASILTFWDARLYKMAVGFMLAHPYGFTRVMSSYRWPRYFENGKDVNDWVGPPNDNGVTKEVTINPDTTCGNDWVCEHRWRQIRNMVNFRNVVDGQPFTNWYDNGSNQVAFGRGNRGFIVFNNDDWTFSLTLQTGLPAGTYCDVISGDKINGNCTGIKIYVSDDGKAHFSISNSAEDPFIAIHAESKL

A549 [7] = assay: Antiproliferative activity against human A549 cells assessed as inhibition of cell growth incubated for 48 hrs by MTT assay; assay type: functional, cell-based; settings: A549, 48 h
A549 [8] = assay: Induction of ROS in human A549 cells at sub IC50 concentration incubated for 24 hrs by H2DCFDA dye based fluorescence assay (reference value: 33.28%); assay type: functional
[9] = biological target: Alpha amylase (Homo sapiens) (UniProt P0DUB6); assay: Binding affinity to alpha-amylase (unknown origin) assessed as Stem-Volmer quenching constant at a temperature of 310.15 K by fluorescence quenching analysis
[10] = biological target: Alpha amylase (Homo sapiens) (UniProt P0DUB6); assay: Binding affinity to alpha-amylase (unknown origin) assessed as quenching constant at a temperature of 278.15 K by fluorescence quenching analysis
[11] = biological target: Alpha amylase (Homo sapiens) (UniProt P0DUB6); assay: Binding affinity to alpha-amylase (unknown origin) assessed as Stem-Volmer quenching constant at a temperature of 278.15 K by fluorescence quenching analysis
[12] = biological target: Alpha amylase (Homo sapiens) (UniProt P0DUB6); assay: Binding affinity to alpha-amylase (unknown origin) assessed as gibb's free energy change ar a temperature of 283.15 K by fluorescence quenching analysis
[13] = biological target: Alpha amylase (Homo sapiens) (UniProt P0DUB6); assay: Binding affinity to alpha-amylase (unknown origin) assessed as increase in absorption intensity by measuring appearance of new peak at 380 nm at 0.001 M by […]
[14] = biological target: Alpha amylase (Homo sapiens) (UniProt P0DUB6); assay: Binding affinity to alpha-amylase (unknown origin) assessed as gibb's free energy change ar a temperature of 310.15 K by fluorescence quenching analysis
[15] = biological target: Alpha amylase (Homo sapiens) (UniProt P0DUB6); assay: Binding affinity to alpha-amylase (unknown origin) assessed as gibb's free energy change ar a temperature of 278.15 K by fluorescence quenching analysis
[16] = biological target: Alpha amylase (Homo sapiens) (UniProt P0DUB6); assay: Binding affinity to alpha-amylase (unknown origin) assessed as increase in intensity of absorption peak at 285 nm by […]
[17] = biological target: Alpha amylase (Homo sapiens) (UniProt P0DUB6); assay: Binding affinity to alpha-amylase (unknown origin) assessed as change in enthalpy by fluorescence quenching analysis
[18] = biological target: Alpha amylase (Homo sapiens) (UniProt P0DUB6); assay: Binding affinity to alpha-amylase (unknown origin) assessed as equilibrium binding constant at a temperature of 288.15 K by fluorescence quenching analysis
HCT-116 = assay: Antiproliferative activity against human HCT-116 cells assessed as inhibition of cell growth incubated for 48 hrs by MTT assay; assay type: functional, cell-based; settings: HCT-116, 48 h
[19] = biological target: Alpha amylase (Homo sapiens) (UniProt P0DUB6); assay: Binding affinity to alpha-amylase (unknown origin) assessed as gibb's free energy change ar a temperature of 288.15 K by fluorescence quenching analysis
[20] = biological target: Alpha amylase (Homo sapiens) (UniProt P0DUB6); assay: Binding affinity to alpha-amylase (unknown origin) assessed as assessed as non-uniform change in fluorescence intensity of tryptophan residue by Synchronous fluorescence analysis
MDA-MB-231 = assay: Antiproliferative activity against human MDA-MB-231 cells assessed as inhibition of cell growth incubated for 48 hrs by MTT assay; assay type: functional, cell-based; settings: MDA-MB-231, 48 h
[21] = biological target: Alpha amylase (Homo sapiens) (UniProt P0DUB6); assay: Binding affinity to alpha-amylase (unknown origin) assessed as equilibrium binding constant at a temperature of 283.15 K by fluorescence quenching analysis
[22] = biological target: Alpha amylase (Homo sapiens) (UniProt P0DUB6); assay: Binding affinity to alpha-amylase (unknown origin) assessed as change in entropy by fluorescence quenching analysis
[23] = biological target: Alpha amylase (Homo sapiens) (UniProt P0DUB6); assay: Binding affinity to alpha-amylase (unknown origin) assessed as equilibrium binding constant at a temperature of 278.15 K by fluorescence quenching analysis
[24] = biological target: Alpha amylase (Homo sapiens) (UniProt P0DUB6); assay: Binding affinity to alpha-amylase (unknown origin) assessed as equilibrium binding constant at a temperature of 310.15 K by fluorescence quenching analysis
[25] = biological target: Alpha amylase (Homo sapiens) (UniProt P0DUB6); assay: Binding affinity to alpha-amylase (unknown origin) assessed as Stem-Volmer quenching constant at a temperature of 288.15 K by fluorescence quenching analysis

- IC50 (Pancreatic alpha-amylase): 590 nM
Structure (SMILES): COc1ccc(CNC(=O)Nc2sc3c(c2C#N)CCCC3)c(OC)c1

- Kq [1]: 2.46 10^13L/mol/s
- Kq [2]: 1.88 10^13L/mol/s
- Activity [3]: Dose-Dependent Effect
- Activity [4]: Active
- KSV [5]: 0.93 10^5L/mol/s
- Kq [6]: 9.36 10^13L/mol/s
- IC50 (Alpha amylase): 0.23 µM
- IC50 (A549 [7]): 7.44 µM
- KSV [9]: 0.188 10^5L/mol/s
- Kq [10]: 16.8 10^13L/mol/s
- KSV [11]: 1.6 10^5L/mol/s
- deltaG [12]: -28 kJ/mol
- Activity [13]: Active
- deltaG [14]: -2.12 kJ/mol
- deltaG [15]: -32.3 kJ/mol
- Activity [16]: Dose-Dependent Effect
- deltaH [17]: -26.8 kJ/mol
- Kb [18]: 0.00254 10^6L/mol
- IC50 (HCT-116): 8.33 µM
- deltaG [19]: -23.8 kJ/mol
- Activity [20]: Active
- IC50 (MDA-MB-231): 11.4 µM
- Kb [21]: 0.102 10^6L/mol
- deltaS [22]: -847 J/mol/K
- Kb [23]: 6.32 10^6L/mol
- Kb [24]: 442000 L/mol
- KSV [25]: 0.24 10^5L/mol/s
Structure (SMILES): O=C(N/N=C/c1ccc(O)cc1)c1csc(Nc2ccc([N+](=O)[O-])cc2)n1
- Activity (MCF-10A): Non-Toxic
- Activity (A549 [8]): 64.21%
